What all share (format): functional
For test [1], the system named is Cucumis sativus. Description: Phytotoxic activity against Cucumis sativus (cucumber) assessed as aerial part growth inhibition at 5.0 x 10^-4 mol/l measured 15 days after seed sowing under greenhouse trials (reference value: 0.0%). The conditions noted are these: 360 h.
The subject of test [2] is Ipomoea grandifolia. Description: Phytotoxic activity against Ipomoea grandifolia assessed as weight of root at 5.0 x 10^-4 mol/l measured 21 days after seed sowing under greenhouse trials (reference value: 18.4 mg).
Test [3] concerns Urochloa decumbens. Description: Phytotoxic activity against Urochloa decumbens assessed as root growth inhibition at 5.0 x 10^-4 mol/l measured 21 days after seed sowing under greenhouse trials (reference value: 0.0%). The conditions noted are these: 504 h.
Test [4] has as its system Cucumis sativus. Kind of test: Phytotoxic activity against Cucumis sativus (cucumber) assessed as weight of aerial parts at 5.0 x 10^-4 mol/l measured 15 days after seed sowing under greenhouse trials (reference value: 47.0 mg).
The test system of test [5] is Sorghum bicolor. Kind of test: Phytotoxic activity against Sorghum bicolor assessed as aerial part growth inhibition at 5.0 x 10^-4 mol/l measured 15 days after seed sowing under greenhouse trials (reference value: 0.0%). Particulars: 360 h.
The test system of test [6] is Cucumis sativus. Description: Phytotoxic activity against Cucumis sativus (cucumber) seedlings assessed as inhibition of radicle growth at 5x10'-4 mol/l at 28 +/-1 degC after 48 hr by acid-washed sand based radicle elongation assay (reference value: 0.0%).
The subject of test [7] is Cucumis sativus. Kind of test: Phytotoxic activity against Cucumis sativus (cucumber) assessed as root growth inhibition at 5.0 x 10^-4 mol/l measured 15 days after seed sowing under greenhouse trials (reference value: 0.0%). The conditions noted are these: 360 h.
In test [8] the test system is Cucumis sativus. Description: Phytotoxic activity against Cucumis sativus (cucumber) seedlings assessed as germination at 5x10'-4 mol/l at 28 +/-1 degC after 48 hr by acid-washed sand based radicle elongation assay (reference value: 100%).
Test [9] concerns Urochloa decumbens. Description: Phytotoxic activity against Urochloa decumbens assessed as weight of aerial parts at 5.0 x 10^-4 mol/l measured 21 days after seed sowing under greenhouse trials (reference value: 22.0 mg).
In test [10] the test system is Cucumis sativus. Description: Phytotoxic activity against Cucumis sativus (cucumber) seedlings assessed as radicle length at 5x10'-4 mol/l at 28 +/-1 degC after 48 hr by acid-washed sand based radicle elongation assay (reference value: 4.8 cm).
Test [11] has as its system Urochloa decumbens. Kind of test: Phytotoxic activity against Urochloa decumbens assessed as weight of root at 5.0 x 10^-4 mol/l measured 21 days after seed sowing under greenhouse trials (reference value: 21.2 mg).
The test system of test [12] is Ipomoea grandifolia. Kind of test: Phytotoxic activity against Ipomoea grandifolia assessed as weight of aerial parts at 5.0 x 10^-4 mol/l measured 21 days after seed sowing under greenhouse trials (reference value: 17.8 mg).
Test [13] has as its system Sorghum bicolor. Kind of test: Phytotoxic activity against Sorghum bicolor seedlings assessed as germination at 5x10'-4 mol/l at 28 +/-1 degC after 48 hr by acid-washed sand based radicle elongation assay (reference value: 100%).
Test [14] has as its system Sorghum bicolor. Description: Phytotoxic activity against Sorghum bicolor seedlings assessed as inhibition of radicle growth at 5x10'-4 mol/l at 28 +/-1 degC after 48 hr by acid-washed sand based radicle elongation assay (reference value: 0.0%).
Test [15] has as its system Sorghum bicolor. Description: Phytotoxic activity against Sorghum bicolor seedlings assessed as radicle length at 5x10'-4 mol/l at 28 +/-1 degC after 48 hr by acid-washed sand based radicle elongation assay (reference value: 5.1 cm).
In test [16] the test system is Sorghum bicolor. Kind of test: Phytotoxic activity against Sorghum bicolor assessed as root growth inhibition at 5.0 x 10^-4 mol/l measured 15 days after seed sowing under greenhouse trials (reference value: 0.0%). Particulars: 360 h.
Test [17] relates to Cucumis sativus. Description: Phytotoxic activity against Cucumis sativus (cucumber) assessed as weight of roots at 5.0 x 10^-4 mol/l measured 15 days after seed sowing under greenhouse trials (reference value: 31.0 mg).
The subject of test [18] is Sorghum bicolor. Description: Phytotoxic activity against Sorghum bicolor assessed as weight of roots at 5.0 x 10^-4 mol/l measured 15 days after seed sowing under greenhouse trials (reference value: 14.0 mg).
In test [19] the test system is Sorghum bicolor. Kind of test: Phytotoxic activity against Sorghum bicolor assessed as weight of aerial parts at 5.0 x 10^-4 mol/l measured 15 days after seed sowing under greenhouse trials (reference value: 19.0 mg).
In test [20] the test system is Ipomoea grandifolia. Kind of test: Phytotoxic activity against Ipomoea grandifolia assessed as aerial part growth inhibition at 5.0 x 10^-4 mol/l measured 21 days after seed sowing under greenhouse trials (reference value: 0.0%). The conditions noted are these: 504 h.
Test [21] concerns Ipomoea grandifolia. Kind of test: Phytotoxic activity against Ipomoea grandifolia assessed as root growth inhibition at 5.0 x 10^-4 mol/l measured 21 days after seed sowing under greenhouse trials (reference value: 0.0%). Particulars: 504 h.
For test [22], the system named is Urochloa decumbens. Description: Phytotoxic activity against Urochloa decumbens assessed as aerial part growth inhibition at 5.0 x 10^-4 mol/l measured 21 days after seed sowing under greenhouse trials (reference value: 0.0%). The conditions noted are these: 504 h.

Experimental findings from ChEMBL document CHEMBL3044807, “Synthesis and biological evaluation of new ozonides with improved plant growth regulatory activity” (2009) are described below.

What is called inhibition is how much of the control response was suppressed. For `CC[C@@H]1C(=O)[C@@H](CC)[C@@]23CC(C)CCC2=C(C)[C@H]1O3` (stereo not given in full), the inhibition at 500 µM amounted to 34.6% in the test with Cucumis sativus [1]; 85.5% with Urochloa decumbens [3]; 28.1% in the test on Sorghum bicolor [5]; 62.9% in the test with Cucumis sativus [6]; 79.7% in the test with Cucumis sativus [7]; 68% in the test with Sorghum bicolor [14]. The inhibition at 500 µM in the test with Sorghum bicolor [16] was 9.3%; in the test on Ipomoea grandifolia [20] it was 61.8%; with Ipomoea grandifolia [21], 85.3%; in the test on Urochloa decumbens [22], 75.3%. For the same compound, the Activity was 2.4 mg in the test on Ipomoea grandifolia [2]; 30.7 mg in the test with Cucumis sativus [4]; 5.4 mg with Urochloa decumbens [9]; 1.8 cm in the test on Cucumis sativus [10]; 3.4 mg with Urochloa decumbens [11]; 6.9 mg in the test on Ipomoea grandifolia [12]. The Activity with Sorghum bicolor [15] worked out at 1.7 cm; in the test on Cucumis sativus [17], 6.3 mg; in the test with Sorghum bicolor [18], 12.7 mg; in the test on Sorghum bicolor [19], 13.7 mg. Moreover, the germination % at 500 µM in the test with Cucumis sativus [8] turned out to be 96%; in the test with Sorghum bicolor [13], 93%.

In the case of `O=C1C2CCCCC1C1OC2C2OOC1O2`, the inhibition at 500 µM in the test on Cucumis sativus [1] turned out to be 27.5%; in the test with Urochloa decumbens [3], 60.2%; with Sorghum bicolor [5] it was 45.1%; in the test on Cucumis sativus [6], 68.5%; in the test on Cucumis sativus [7], 77.8%; in the test on Sorghum bicolor [14], 59.7%. For the same compound, the inhibition at 500 µM with Sorghum bicolor [16] was determined as 26.4%; in the test with Ipomoea grandifolia [20] it was 46.5%; in the test with Ipomoea grandifolia [21], 53.6%; in the test with Urochloa decumbens [22], 44.1%. The Activity with Ipomoea grandifolia [2] was 7.4 mg; with Cucumis sativus [4] it was 34.1 mg; in the test with Urochloa decumbens [9], 12.3 mg; in the test on Cucumis sativus [10], 1.5 cm; in the test on Urochloa decumbens [11], 8.3 mg; in the test on Ipomoea grandifolia [12] it was 9.6 mg. Moreover, the Activity came out at 2.1 cm in the test on Sorghum bicolor [15], 6.9 mg in the test with Cucumis sativus [17], 10.3 mg in the test on Sorghum bicolor [18] and 10.4 mg in the test with Sorghum bicolor [19]. Moreover, the germination % at 500 µM with Cucumis sativus [8] amounted to 100%; with Sorghum bicolor [13], 96%.

Take `CC(=O)[C@@]12C=C[C@H](O1)[C@H]1CCCC[C@H]2C1=O`: the inhibition at 500 µM in the test on Cucumis sativus [1] was 57.4%; with Urochloa decumbens [3] it was 78.4%; in the test with Sorghum bicolor [5], 6%; in the test on Cucumis sativus [6] it was 82.1%; with Cucumis sativus [7], 84.1%; in the test with Sorghum bicolor [14], 88.5%. For the same compound, the inhibition at 500 µM in the test on Sorghum bicolor [16] was determined as 23.2%; with Ipomoea grandifolia [20], 39.4%; in the test on Ipomoea grandifolia [21] it was 46.2%; with Urochloa decumbens [22], 66.5%. Also, the Activity was 8.6 mg with Ipomoea grandifolia [2]; 20 mg in the test on Cucumis sativus [4]; 7.4 mg in the test with Urochloa decumbens [9]; 0.9 cm with Cucumis sativus [10]; 4.5 mg in the test on Urochloa decumbens [11]; 10.9 mg in the test on Ipomoea grandifolia [12]. Further, the Activity is listed as 0.6 cm with Sorghum bicolor [15], 4.9 mg in the test with Cucumis sativus [17], 10.7 mg in the test on Sorghum bicolor [18] and 17.8 mg with Sorghum bicolor [19]. For the same compound, the germination % at 500 µM in the test on Cucumis sativus [8] came out at 86%; in the test with Sorghum bicolor [13], 96%.

Consider `CCC12OC(C3OOC1O3)C1CCCCC2C1=O` (mixture of isomers), for which the inhibition at 500 µM turned out to be 48% with Cucumis sativus [1]; 77.9% in the test on Urochloa decumbens [3]; 45.4% with Sorghum bicolor [5]; 57.2% with Cucumis sativus [6]; 75.2% with Cucumis sativus [7]; 52.5% with Sorghum bicolor [14]. The inhibition at 500 µM with Sorghum bicolor [16] came out at 27.1%; with Ipomoea grandifolia [20] it was 47.7%; in the test with Ipomoea grandifolia [21], 43%; with Urochloa decumbens [22] it was 74.4%. Also, the Activity is on record as 9.1 mg with Ipomoea grandifolia [2]; 24.4 mg in the test with Cucumis sativus [4]; 5.7 mg in the test on Urochloa decumbens [9]; 2.1 cm in the test with Cucumis sativus [10]; 4.6 mg in the test with Urochloa decumbens [11]; 9.4 mg in the test on Ipomoea grandifolia [12]. The Activity with Sorghum bicolor [15] stood at 2.4 cm; in the test with Cucumis sativus [17], 7.7 mg; with Sorghum bicolor [18], 10.2 mg; in the test with Sorghum bicolor [19] it was 10.3 mg. Further, the germination % at 500 µM worked out at 96% with Cucumis sativus [8] and 100% in the test with Sorghum bicolor [13].

With `CC12OC(C)(C3OOC1O3)C1CCCCC2C1=O` (mixture of isomers), the inhibition at 500 µM in the test on Cucumis sativus [1] was 43.8%; with Urochloa decumbens [3] it was 83%; in the test on Sorghum bicolor [5] it was 53.9%; with Cucumis sativus [6] it was 69.1%; in the test on Cucumis sativus [7] it was 79.7%; in the test on Sorghum bicolor [14], 47.1%. Besides, the inhibition at 500 µM in the test with Sorghum bicolor [16] amounted to 18.2%; with Ipomoea grandifolia [20], 65.4%; in the test with Ipomoea grandifolia [21] it was 64.6%; with Urochloa decumbens [22], 79.7%. Also, the Activity was found to be 5.7 mg in the test with Ipomoea grandifolia [2]; 26.4 mg in the test on Cucumis sativus [4]; 4.4 mg with Urochloa decumbens [9]; 1.5 cm in the test on Cucumis sativus [10]; 3.6 mg in the test with Urochloa decumbens [11]; 6.2 mg with Ipomoea grandifolia [12]. The Activity was found to be 2.7 cm with Sorghum bicolor [15], 6.3 mg in the test with Cucumis sativus [17], 11.5 mg in the test on Sorghum bicolor [18] and 8.8 mg with Sorghum bicolor [19]. Moreover, the germination % at 500 µM in the test on Cucumis sativus [8] and with Sorghum bicolor [13] was 100% throughout.
